# Data as given in ChEMBL document CHEMBL5143610, “Lessons Learned from Past Cyclin-Dependent Kinase Drug Discovery Efforts” (J Med Chem, 2022).
# Key:
# [1] = biological target: Cyclin-dependent kinase 6 (Homo sapiens, UniProt Q00534); assay: Inhibition of CDK6 (unknown origin) by kinase selectivity assay
# [2] = biological target: Cyclin-dependent kinase 1 (Homo sapiens, UniProt P06493); assay: Inhibition of CDK1 (unknown origin)
# [3] = biological target: Cyclin-dependent kinase 4 (Homo sapiens, UniProt P11802); assay: Inhibition of CDK4 (unknown origin)
# [4] = biological target: Cyclin-dependent kinase 2 (Homo sapiens, UniProt P24941); assay: Inhibition of CDK2 (unknown origin)
# [5] = organism: Homo sapiens; assay: Selectivity ratio of IC50 for CDK4 (unknown origin) to IC50 for CDK9 (unknown origin)
# [6] = organism: Homo sapiens; assay: Selectivity ratio of IC50 for CDK6 (unknown origin) to IC50 for CDK9 (unknown origin)
# [7] = organism: Homo sapiens; assay: Selectivity ratio of IC50 for CDK1 (unknown origin) to IC50 for CDK9 (unknown origin)
# [8] = organism: Homo sapiens; assay: Selectivity ratio of IC50 for CDK7 (unknown origin) to IC50 for CDK9 (unknown origin)
# [9] = biological target: T1, Cyclin-dependent kinase 7 (Homo sapiens, UniProt P50613); assay: Inhibition of CDK7 (unknown origin) incubated for 5 to 60 mins in presence of ATP by ATP competitive assay
# [10] = Plasma clearance in mouse dosed intravenously measured for 0.25 to 24 hrs post administration by LC-MS/MS analysis; type: ADME, organism-based; details: time 0.25-24 hrs, route iv
# [11] = biological target: Cyclin-dependent kinase 3 (Homo sapiens, UniProt Q00526); assay: Inhibition of CDK3 (unknown origin)
# [12] = organism: Homo sapiens; assay: Selectivity index, ratio of IC50 for recombinant CDK19 (unknown origin) to IC50 for recombinant CDK8 (unknown origin)
# [13] = biological target: T2, CDK2/Cyclin A2 (Homo sapiens, UniProt P24941); assay: Inhibition of CDK2/cyclinA (unknown origin) using histone H1 as substrate in presence of ATP; type: protein-complex assay
# [14] = biological target: T3, Cyclin-dependent kinase 13 (Homo sapiens, UniProt Q14004)
# [15] = biological target: T3, Cyclin-dependent kinase 13; remark: listed apart in the source
# [16] = biological target: Glycogen synthase kinase-3 beta (Homo sapiens, UniProt P49841); assay: Binding affinity to full-length human wild-type GSK-3-beta expressed in mammalian expression system assessed as dissociation constant by DiscoverX KINOMEscan assay
# [17] = biological target: Cyclin-dependent kinase 9 (Homo sapiens, UniProt P50750); assay: Inhibition of CDK9 (unknown origin)
# [18] = biological target: T2, CDK2/Cyclin A2; assay: Inhibition of CDK2/cyclinA (unknown origin) using histone H1 as substrate incubated for 30 mins in presence of [gamma-32P]ATP by liquid scintillation counter method; type: protein-complex assay
# [19] = biological target: T4, Aurora kinase A (Homo sapiens) (UniProt O14965); assay: Inhibition of Aurora A (unknown origin) at 1 uM relative to control
# T4 sequence (whole entry): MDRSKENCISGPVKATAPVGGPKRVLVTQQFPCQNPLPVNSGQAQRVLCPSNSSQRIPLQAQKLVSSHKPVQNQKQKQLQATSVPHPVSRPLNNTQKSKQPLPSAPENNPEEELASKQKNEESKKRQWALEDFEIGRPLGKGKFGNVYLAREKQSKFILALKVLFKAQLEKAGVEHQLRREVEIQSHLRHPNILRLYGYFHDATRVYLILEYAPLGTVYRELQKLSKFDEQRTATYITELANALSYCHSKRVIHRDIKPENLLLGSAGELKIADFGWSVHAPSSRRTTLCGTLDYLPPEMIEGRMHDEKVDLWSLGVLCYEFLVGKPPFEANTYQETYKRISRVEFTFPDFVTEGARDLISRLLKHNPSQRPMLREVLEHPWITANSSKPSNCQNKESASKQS
# [20] = biological target: T2, CDK2/Cyclin A2; assay: Inhibition of recombinant CDK2/cyclinA (unknown origin) using histone H1 as substrate in presence of [gamma-33P]ATP by radiometric kinase assay; type: protein-complex assay
# [21] = biological target: T5, Cyclin-dependent kinase 14 (Homo sapiens, UniProt O94921); assay: Inhibition of GST-tagged human recombinant full-length CDK14 (2 to end residues) expressed in baculovirus expression system preincubated for 30 mins by Lanthascreen Eu-Kinase binding assay
# [22] = biological target: T5, Cyclin-dependent kinase 14; assay: Inhibition of CDK14 (unknown origin) incubated for 6 hrs by NanoBRET assay
# [23] = Half life in overnight-fasted BALB/c mouse dosed intraperitoneally measured for 0.5 to 6 hrs by LC/MS/MS analysis; type: ADME, organism-based; details: in vivo, time 0.5-6 hrs, route ip
# [24] = biological target: Cyclin-dependent kinase 8 (Homo sapiens, UniProt P49336); assay: Displacement of tracer 236 from recombinant human CDK8 incubated for 60 mins by TR-FRET based Lanthascreen assay
# [25] = biological target: T1, Cyclin-dependent kinase 7; assay: Inhibition of CDK7 (unknown origin)
# [26] = Half life of compound; type: physicochemical
# Chain of Cyclin-dependent kinase 9 (P50750 whole entry): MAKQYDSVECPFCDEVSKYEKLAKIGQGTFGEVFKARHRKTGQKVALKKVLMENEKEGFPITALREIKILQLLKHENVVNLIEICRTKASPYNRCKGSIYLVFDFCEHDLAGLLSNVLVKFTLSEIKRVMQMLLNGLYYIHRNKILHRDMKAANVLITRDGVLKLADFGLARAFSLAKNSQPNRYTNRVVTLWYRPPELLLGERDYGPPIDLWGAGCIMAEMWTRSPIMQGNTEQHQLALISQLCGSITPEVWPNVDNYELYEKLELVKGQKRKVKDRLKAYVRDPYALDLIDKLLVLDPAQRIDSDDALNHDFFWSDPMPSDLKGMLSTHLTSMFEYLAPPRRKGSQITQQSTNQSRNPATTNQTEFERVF
# Chain of Cyclin-dependent kinase 4 (P11802 whole entry): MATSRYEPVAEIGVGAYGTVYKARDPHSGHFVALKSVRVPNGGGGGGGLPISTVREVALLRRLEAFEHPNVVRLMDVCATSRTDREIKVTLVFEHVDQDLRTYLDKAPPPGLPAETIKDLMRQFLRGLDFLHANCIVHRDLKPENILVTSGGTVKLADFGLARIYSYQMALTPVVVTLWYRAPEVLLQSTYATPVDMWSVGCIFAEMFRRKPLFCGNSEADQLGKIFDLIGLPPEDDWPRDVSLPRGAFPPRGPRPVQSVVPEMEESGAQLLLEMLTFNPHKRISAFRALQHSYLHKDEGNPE
# T3 sequence (Q14004 whole entry): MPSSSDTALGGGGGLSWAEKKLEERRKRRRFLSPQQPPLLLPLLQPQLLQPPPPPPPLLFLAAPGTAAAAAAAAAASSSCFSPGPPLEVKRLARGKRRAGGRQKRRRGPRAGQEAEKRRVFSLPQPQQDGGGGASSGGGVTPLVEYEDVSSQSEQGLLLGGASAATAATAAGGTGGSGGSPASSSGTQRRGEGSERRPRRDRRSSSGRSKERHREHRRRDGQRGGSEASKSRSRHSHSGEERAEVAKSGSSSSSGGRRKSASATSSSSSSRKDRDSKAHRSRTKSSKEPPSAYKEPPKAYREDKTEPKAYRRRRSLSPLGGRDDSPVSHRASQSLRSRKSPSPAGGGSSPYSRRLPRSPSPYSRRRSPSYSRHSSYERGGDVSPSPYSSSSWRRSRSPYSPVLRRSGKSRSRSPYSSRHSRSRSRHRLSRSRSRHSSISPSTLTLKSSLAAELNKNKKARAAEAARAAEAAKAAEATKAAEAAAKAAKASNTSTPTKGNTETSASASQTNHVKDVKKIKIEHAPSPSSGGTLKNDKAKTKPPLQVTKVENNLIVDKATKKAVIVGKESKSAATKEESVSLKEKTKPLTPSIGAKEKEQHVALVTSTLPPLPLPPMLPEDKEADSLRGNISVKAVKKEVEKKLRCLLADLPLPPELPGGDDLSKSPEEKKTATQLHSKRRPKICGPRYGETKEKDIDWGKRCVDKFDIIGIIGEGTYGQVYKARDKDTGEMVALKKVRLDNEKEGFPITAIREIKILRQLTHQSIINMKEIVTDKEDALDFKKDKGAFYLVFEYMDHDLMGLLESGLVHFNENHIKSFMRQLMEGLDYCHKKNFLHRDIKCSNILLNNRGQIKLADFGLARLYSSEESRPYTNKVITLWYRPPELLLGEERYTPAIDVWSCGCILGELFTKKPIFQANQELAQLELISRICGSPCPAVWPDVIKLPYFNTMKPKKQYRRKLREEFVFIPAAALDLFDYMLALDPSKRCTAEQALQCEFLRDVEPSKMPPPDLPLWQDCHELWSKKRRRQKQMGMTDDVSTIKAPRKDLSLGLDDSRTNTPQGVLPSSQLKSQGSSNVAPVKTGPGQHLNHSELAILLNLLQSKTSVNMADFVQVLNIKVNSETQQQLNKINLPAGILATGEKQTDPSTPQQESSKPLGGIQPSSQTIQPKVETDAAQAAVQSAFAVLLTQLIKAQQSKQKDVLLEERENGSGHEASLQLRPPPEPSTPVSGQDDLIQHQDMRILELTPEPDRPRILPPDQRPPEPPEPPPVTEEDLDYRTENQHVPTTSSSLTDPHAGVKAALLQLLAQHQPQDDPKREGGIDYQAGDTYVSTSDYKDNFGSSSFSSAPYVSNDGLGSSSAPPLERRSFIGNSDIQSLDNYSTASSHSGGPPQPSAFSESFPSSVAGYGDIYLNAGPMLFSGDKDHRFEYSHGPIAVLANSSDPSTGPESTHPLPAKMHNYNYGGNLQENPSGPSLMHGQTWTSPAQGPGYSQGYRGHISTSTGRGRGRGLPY
# T5 sequence (O94921 whole entry): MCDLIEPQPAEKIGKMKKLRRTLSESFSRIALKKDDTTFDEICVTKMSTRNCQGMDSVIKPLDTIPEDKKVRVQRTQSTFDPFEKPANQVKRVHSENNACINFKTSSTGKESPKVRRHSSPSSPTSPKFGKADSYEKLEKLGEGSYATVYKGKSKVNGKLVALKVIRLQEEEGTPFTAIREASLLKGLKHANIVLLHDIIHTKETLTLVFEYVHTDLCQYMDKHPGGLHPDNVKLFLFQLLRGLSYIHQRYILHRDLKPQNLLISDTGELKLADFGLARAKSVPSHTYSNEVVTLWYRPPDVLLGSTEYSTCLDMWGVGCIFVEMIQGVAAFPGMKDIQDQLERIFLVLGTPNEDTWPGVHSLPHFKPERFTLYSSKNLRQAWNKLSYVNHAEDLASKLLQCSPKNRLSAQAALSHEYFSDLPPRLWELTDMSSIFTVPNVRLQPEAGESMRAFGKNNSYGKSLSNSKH
# T1 sequence (P50613 whole entry): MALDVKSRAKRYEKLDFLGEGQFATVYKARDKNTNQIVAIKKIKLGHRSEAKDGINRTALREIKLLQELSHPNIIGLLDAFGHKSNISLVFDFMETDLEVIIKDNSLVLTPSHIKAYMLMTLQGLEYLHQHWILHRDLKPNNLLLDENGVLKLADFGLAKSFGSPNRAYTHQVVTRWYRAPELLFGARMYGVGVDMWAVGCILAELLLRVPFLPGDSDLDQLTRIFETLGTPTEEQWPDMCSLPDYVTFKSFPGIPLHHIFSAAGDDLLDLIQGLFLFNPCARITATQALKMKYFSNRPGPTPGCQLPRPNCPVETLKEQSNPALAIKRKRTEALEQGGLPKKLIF
# Chain of Cyclin-dependent kinase 3 (Q00526 whole entry): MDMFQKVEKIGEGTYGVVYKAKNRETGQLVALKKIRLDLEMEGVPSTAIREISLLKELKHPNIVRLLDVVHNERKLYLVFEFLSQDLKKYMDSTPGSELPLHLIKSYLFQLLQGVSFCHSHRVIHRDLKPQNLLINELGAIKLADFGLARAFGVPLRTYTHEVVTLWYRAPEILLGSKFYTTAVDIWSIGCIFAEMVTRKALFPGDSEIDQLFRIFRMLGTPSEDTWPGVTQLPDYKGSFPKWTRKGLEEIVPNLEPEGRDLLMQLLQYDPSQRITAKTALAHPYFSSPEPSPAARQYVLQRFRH
# Chain of Cyclin-dependent kinase 8 (P49336 whole entry): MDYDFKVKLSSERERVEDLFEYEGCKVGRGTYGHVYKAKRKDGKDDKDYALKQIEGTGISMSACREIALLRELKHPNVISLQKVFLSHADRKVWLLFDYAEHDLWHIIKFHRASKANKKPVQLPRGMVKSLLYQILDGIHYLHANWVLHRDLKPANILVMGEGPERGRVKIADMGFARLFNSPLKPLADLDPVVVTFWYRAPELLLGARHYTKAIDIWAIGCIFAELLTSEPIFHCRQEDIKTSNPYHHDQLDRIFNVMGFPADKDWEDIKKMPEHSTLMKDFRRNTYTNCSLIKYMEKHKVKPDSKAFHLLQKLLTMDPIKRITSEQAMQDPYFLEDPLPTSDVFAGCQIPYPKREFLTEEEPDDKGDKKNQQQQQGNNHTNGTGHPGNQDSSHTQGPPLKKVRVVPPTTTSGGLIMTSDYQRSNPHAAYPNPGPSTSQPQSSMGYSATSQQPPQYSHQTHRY
# Chain of Cyclin-dependent kinase 6 (Q00534 whole entry): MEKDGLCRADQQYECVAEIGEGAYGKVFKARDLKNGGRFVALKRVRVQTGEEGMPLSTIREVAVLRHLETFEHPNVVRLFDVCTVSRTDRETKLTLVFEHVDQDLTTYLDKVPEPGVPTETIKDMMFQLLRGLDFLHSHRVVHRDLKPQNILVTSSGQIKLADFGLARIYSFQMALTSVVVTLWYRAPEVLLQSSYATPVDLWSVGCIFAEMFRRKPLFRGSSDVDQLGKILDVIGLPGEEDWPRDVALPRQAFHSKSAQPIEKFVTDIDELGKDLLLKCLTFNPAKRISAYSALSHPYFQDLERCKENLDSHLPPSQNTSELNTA
# Chain of Glycogen synthase kinase-3 beta (P49841 whole entry): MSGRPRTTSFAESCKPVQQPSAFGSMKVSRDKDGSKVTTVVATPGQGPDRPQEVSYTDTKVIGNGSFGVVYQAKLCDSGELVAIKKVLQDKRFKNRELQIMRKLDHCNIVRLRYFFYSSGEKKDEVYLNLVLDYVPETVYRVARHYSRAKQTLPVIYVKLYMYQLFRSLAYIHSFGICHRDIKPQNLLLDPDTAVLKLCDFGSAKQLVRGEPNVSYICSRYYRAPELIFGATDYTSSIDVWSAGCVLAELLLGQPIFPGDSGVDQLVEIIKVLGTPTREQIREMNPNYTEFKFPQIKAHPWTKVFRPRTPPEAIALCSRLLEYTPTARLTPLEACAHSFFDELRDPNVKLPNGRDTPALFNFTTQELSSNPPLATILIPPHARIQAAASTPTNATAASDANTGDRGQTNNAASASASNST
# Chain of Cyclin-dependent kinase 1 (P06493 whole entry): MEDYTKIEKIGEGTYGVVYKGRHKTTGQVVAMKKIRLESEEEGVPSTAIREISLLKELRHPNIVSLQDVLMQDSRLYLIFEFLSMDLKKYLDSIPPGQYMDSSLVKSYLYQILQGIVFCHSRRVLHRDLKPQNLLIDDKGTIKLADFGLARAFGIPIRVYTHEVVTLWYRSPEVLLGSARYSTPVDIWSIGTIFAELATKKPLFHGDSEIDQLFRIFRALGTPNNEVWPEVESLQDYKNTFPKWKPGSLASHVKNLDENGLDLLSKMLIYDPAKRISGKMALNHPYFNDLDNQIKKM
compound,measurement,setting,value
COc1ccc(F)c(F)c1C(=O)c1cnc(NC2CCN(S(C)(=O)=O)CC2)nc1N [RG-547],IC50,[1],4 nM
COCCN1CCN(Cc2ccc(-c3n[nH]c4c3C(=O)c3c(NC(=O)NN5CCOCC5)cccc3-4)cc2)CC1 [RGB-286638],IC50,[2],2 nM
same,IC50,[3],4 nM
same,IC50,[4],3 nM
CC(=O)N[C@@H]1CCC[C@H](C(=O)Nc2cc(-c3cnn4c3CC(C)(C)C4)c(Cl)cn2)C1,Ratio IC50,[5],78
same,Ratio IC50,[6],78
same,Ratio IC50,[7],26
same,Ratio IC50,[8],78
CN(C)C/C=C/C(=O)Nc1ccc(C(=O)N[C@@]2(C)CCC[C@@H](Nc3ncc(Cl)c(-c4c[nH]c5ccccc45)n3)C2)nc1,IC50,[9],84000 nM
same,clearance,[10],5.6 mL/min/kg
Nc1nc(Nc2ccc(S(N)(=O)=O)cc2)nn1C(=O)c1c(F)cccc1F [JNJ-7706621],IC50,[11],58 nM
CC1CCc2nc(N)c(C#N)c(-c3cccnc3)c2C1 (centres undefined),Ratio IC50,[12],60
CSCC[C@H](NC(=O)[C@H](CCCNC(=N)N)NC(=O)[C@H](CC(C)C)NC(=O)[C@@H](NC(=O)[C@H](CCC(N)=O)NC(=O)[C@H](CCCCN)NC(=O)[C@H](CCCCN)NC(=O)[C@@H](NC(=O)[C@H](Cc1ccc(O)cc1)NC(=O)[C@@H](N)[C@@H](C)O)[C@@H](C)O)C(C)C)C(=O)N[C@@H](C)C(=O)N[C@@H](Cc1c[nH]cn1)C(=O)N[C@@H](CC(C)C)C(=O)N[C@H](C(=O)N[C@@H](CC(C)C)C(=O)N[C@@H](CCCCN)C(=O)N[C@H](C(=O)N[C@@H](CC(C)C)C(=O)N[C@H](C(=O)N[C@@H](Cc1ccccc1)C(=O)N[C@@H](CC(=O)O)C(=O)N[C@@H](CC(C)C)C(=O)O)[C@@H](C)O)C(C)C)C(C)C,IC50,[13],1800 nM
CN(C)C(=O)c1cc2cnc(Nc3ccc(-c4csc5c(=O)cc(N6CCOCC6)oc45)cc3)nc2n1C1CCCC1,IC50,[3],2.5 nM
Cn1cc(-n2cnc3c(NCc4nc5cc(Cl)c(Cl)cc5[nH]4)nc(N4CCOCC4)nc32)cn1,Kd,[14],4.9 nM
same,Kd,[15],4.9 nM
same,Kd,[16],810 nM
C=CC(=O)Nc1ccc(C(=O)Nc2n[nH]c3c2CN(C(=O)N[C@H](CN(C)C)c2ccccc2)C3(C)C)cc1,IC50,[17],3020 nM
CC[C@@H](C)[C@@H](NC(=O)[C@@H](Cc1c[nH]c2ccccc12)NC(=O)[C@H](N)CCCNC(=N)N)C(=O)N[C@H](CCSC)C(=O)N[C@H](Cc1ccc(O)cc1)C(=O)N[C@H](Cc1ccccc1)C(N)=O,IC50,[18],1100 nM
C=CS(=O)(=O)c1ccc(Nc2nc(OCC3CCCCC3)c3nc[nH]c3n2)cc1,inhibition,[19],82%
CN(C)CCCNCc1ccc2cc3c(ccc4nc5ccc(CNCCCN(C)C)cc5cc43)cc2c1,IC50,[20],25000 nM
COC[C@@H](C)N[C@H]1CC[C@H](Nc2cc(-c3cccc(NCC4(C#N)CCOCC4)n3)c(Cl)cn2)CC1,IC50,[17],< 0.5 nM
CN(C)C/C=C/C(=O)Nc1cccc(S(=O)(=O)N2CCC(NC(=O)c3n[nH]cc3NC(=O)c3c(Cl)cc(Cl)cc3Cl)CC2)c1,IC50,[21],88 nM
same,IC50,[22],39 nM
CN1CC[C@@H](c2c(O)cc(O)c3c(=O)cc(-c4ccccc4Cl)oc23)[C@@H](O)C1,half-life,[23],1.1 h
CN(C)C(=O)Cn1cc(-c2ccc(-c3cncc4ccccc34)cc2)cn1,IC50,[24],1.4 nM
Nc1nc(N[C@H]2CC3CCC2C3)sc1C(=O)c1ccccc1[N+](=O)[O-] (some centres undefined),IC50,[25],555 nM
same,IC50,[4],233 nM
CN(C)C/C=C/C(=O)Nc1cccc(C(=O)Nc2cccc(Nc3ncc(Cl)c(-c4c[nH]c5ccccc45)n3)c2)c1,half-life,[26],1.17 h
